{
  "source": "patent US8563582B2",
  "about": "“3-aminocyclopentanecarboxamides as modulators of chemokine receptors” (priority 2004, dated 2013)",
  "origin": "cited, not measured here",
  "key": {"[1]": {"tested_on": "HIV"}, "[2]": {"molecular_target": "human CCR5 (Homo sapiens, UniProt P51681)", "sequence (P51681 whole entry)": "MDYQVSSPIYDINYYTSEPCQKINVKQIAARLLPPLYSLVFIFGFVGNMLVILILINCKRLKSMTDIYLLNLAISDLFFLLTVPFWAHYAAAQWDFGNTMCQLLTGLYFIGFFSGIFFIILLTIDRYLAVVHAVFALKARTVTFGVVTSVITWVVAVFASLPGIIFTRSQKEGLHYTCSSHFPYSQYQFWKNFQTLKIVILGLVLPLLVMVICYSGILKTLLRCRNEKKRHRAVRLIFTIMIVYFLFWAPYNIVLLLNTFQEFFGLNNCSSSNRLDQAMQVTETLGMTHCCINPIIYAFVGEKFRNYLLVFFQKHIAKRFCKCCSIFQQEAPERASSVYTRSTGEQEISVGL"}, "[3]": {"molecular_target": "rhesus macaque CCR5 (Macaca mulatta, UniProt P61813)"}, "[4]": {"tested_on": "HIV-1", "settings": "U-87 astroglioma cells"}, "[5]": {"tested_on": "HIV-1"}},
  "data": [
    {"smiles": "Cc1ccc(-c2ccc3c(c2)C=C(C(=O)Nc2ccc(C[N+](C)(C)C4CCOCC4)cc2)CCC3)cc1.[Cl-]", "note": "[TAK-779]", "values": [
      {"measurement": "anti-HIV activity", "setting": "[1]", "result": "potent but variable"}
    ]},
    {"smiles": "Cc1ncnc(C)c1C(=O)N1CCC(C)(N2CCN([C@@H](C)c3ccc(C(F)(F)F)cc3)[C@@H](C)C2)CC1", "note": "[AD101]", "values": [
      {"measurement": "inhibition of entry of HIV-1 via human CCR5", "setting": "[2]", "result": "inhibits"},
      {"measurement": "inhibition of HIV-1 entry via rhesus macaque CCR5", "setting": "[3]", "result": "inhibits"}
    ]},
    {"smiles": "CCO/N=C(\\c1ccc(Br)cc1)C1CCN(C2(C)CCN(C(=O)c3c(C)cc[n+]([O-])c3C)CC2)CC1", "note": "[SCH-C]", "values": [
      {"measurement": "inhibition of HIV-1 infection mediated by CCR5", "setting": "[4]", "result": "specifically inhibits"},
      {"measurement": "effect on infection of CXCR4-expressing cells", "setting": "[5]", "result": "no effect"},
      {"measurement": "inhibition of HIV-1 entry via rhesus macaque CCR5", "setting": "[3]", "result": "does not"}
    ]}
  ]
}
